{
  "source": "ChEMBL document CHEMBL5247574",
  "about": "“Recent Progress on Bile Acid Receptor Modulators for Treatment of Metabolic Diseases” (J Med Chem, 2016)",
  "key": {"Bile acid receptor [1]": {"target": "T1, Bile acid receptor (Homo sapiens, UniProt Q96RI1)", "T1 sequence (Q96RI1 whole entry)": "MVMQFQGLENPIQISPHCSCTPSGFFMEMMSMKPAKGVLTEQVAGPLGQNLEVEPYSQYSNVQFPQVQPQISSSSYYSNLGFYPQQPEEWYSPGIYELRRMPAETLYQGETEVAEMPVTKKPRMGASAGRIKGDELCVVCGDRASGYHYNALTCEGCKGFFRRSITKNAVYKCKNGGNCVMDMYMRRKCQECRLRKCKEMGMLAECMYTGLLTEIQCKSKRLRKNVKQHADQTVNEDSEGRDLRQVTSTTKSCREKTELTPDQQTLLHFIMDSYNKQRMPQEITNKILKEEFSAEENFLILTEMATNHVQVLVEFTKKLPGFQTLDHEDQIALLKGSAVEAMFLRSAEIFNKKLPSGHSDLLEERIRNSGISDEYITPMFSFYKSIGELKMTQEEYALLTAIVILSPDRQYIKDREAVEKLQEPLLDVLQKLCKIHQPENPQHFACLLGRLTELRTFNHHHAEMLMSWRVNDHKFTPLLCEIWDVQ", "assay": "Antagonist activity at FXR (unknown origin) by HTFR assay"}, "[2]": {"target": "T2, G-protein coupled bile acid receptor 1 (Homo sapiens, UniProt Q8TDU6)", "T2 sequence (Q8TDU6 whole entry)": "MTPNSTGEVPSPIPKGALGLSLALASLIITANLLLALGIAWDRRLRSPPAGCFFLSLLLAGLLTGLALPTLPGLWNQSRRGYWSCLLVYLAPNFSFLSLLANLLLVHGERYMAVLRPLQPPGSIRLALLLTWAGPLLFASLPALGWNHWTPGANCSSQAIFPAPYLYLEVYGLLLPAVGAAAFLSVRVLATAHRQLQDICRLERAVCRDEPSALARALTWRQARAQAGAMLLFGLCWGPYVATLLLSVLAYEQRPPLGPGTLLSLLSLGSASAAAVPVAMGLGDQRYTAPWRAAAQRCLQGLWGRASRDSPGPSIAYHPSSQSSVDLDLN", "assay": "Agonist activity at TGR5 in human HEK293 cells assessed as increase in cAMP production", "type": "cell-based"}, "[3]": {"target": "T3, Bile acid receptor (Homo sapiens) (UniProt Q96RI1)", "T3 sequence (whole entry)": "T1 sequence (Q96RI1 whole entry)", "assay": "Agonist activity at FXR (unknown origin) by alphascreen assay", "conditions": "filed as agonist"}, "[4]": {"target": "T2, G-protein coupled bile acid receptor 1", "assay": "Agonist activity at human TGR5 transfected in CHO cells assessed as increase in cAMP production", "type": "cell-based"}, "[5]": {"target": "T4, G-protein coupled bile acid receptor 1 (Homo sapiens) (UniProt Q8TDU6)", "T4 sequence (whole entry)": "T2 sequence (Q8TDU6 whole entry)", "assay": "Agonist activity at human TGR5 transfected in CHO cells assessed as increase in cAMP production at 1 uM relative to control", "type": "cell-based", "conditions": "filed as agonist"}, "[6]": {"target": "T4, G-protein coupled bile acid receptor 1 (Homo sapiens)", "assay": "Agonist activity at human TGR5 transfected in CHO cells assessed as increase in cAMP production at 100 nM relative to control", "type": "cell-based", "conditions": "filed as agonist"}, "[7]": {"target": "T2, G-protein coupled bile acid receptor 1", "assay": "Agonist activity at human TGR5 transfected in CHO-K1 cells assessed as increase in cAMP production", "type": "cell-based"}, "[8]": {"target": "T5, G-protein coupled bile acid receptor 1 (Mus musculus) (UniProt Q80SS6)", "T5 sequence (whole entry)": "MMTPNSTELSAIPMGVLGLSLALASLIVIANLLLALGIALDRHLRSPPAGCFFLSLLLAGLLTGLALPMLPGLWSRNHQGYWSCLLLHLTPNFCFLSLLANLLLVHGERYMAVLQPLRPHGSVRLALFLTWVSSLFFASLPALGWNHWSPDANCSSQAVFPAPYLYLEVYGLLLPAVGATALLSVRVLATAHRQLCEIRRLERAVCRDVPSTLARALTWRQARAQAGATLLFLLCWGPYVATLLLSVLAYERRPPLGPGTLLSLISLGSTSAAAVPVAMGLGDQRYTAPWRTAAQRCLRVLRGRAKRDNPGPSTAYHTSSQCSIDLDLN", "assay": "In vivo agonist activity at TGR5 in C57/Bl6 mouse assessed as increase in GLP-1 secretion at 30 mg/kg, po relative to control", "type": "functional, organism-based"}, "[9]": {"target": "T6, G-protein coupled bile acid receptor 1 (Rattus norvegicus) (UniProt Q80T02)", "T6 sequence (whole entry)": "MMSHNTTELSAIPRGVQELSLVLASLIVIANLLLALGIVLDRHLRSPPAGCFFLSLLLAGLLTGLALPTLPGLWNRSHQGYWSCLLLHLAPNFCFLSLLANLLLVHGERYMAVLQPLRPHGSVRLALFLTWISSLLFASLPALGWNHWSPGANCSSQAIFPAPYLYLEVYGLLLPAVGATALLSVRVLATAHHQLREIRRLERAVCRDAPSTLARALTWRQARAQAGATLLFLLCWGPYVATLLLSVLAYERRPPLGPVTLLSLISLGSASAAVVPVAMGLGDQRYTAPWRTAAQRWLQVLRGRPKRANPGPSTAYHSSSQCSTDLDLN", "assay": "Agonist activity at TGR5 in rat Primary intestinal cell assessed as stimulation of GLP-1 secretion at 30 uM relative to control", "type": "cell-based", "conditions": "filed as agonist"}, "[10]": {"assay": "Aqueous solubility of compound", "type": "physicochemical", "conditions": "buffer"}, "[11]": {"assay": "Clearance in mouse liver microsomes", "type": "ADME, Microsome", "conditions": "microsomes"}, "[12]": {"target": "T7, G-protein coupled bile acid receptor 1 (Mus musculus, UniProt Q80SS6)", "T7 sequence (Q80SS6 whole entry)": "T5 sequence (whole entry)", "assay": "Agonist activity at mouse TGR5"}, "[13]": {"assay": "Clearance in human liver microsomes", "type": "ADME, Microsome", "conditions": "microsomes"}, "Bile acid receptor [14]": {"target": "T1, Bile acid receptor", "assay": "Agonist activity at human GST-tagged FXR LBD (193 to 472 residues) by FRET assay"}, "[15]": {"target": "T2, G-protein coupled bile acid receptor 1", "assay": "Agonist activity at human TGR5 expressed in human HEK293 cells measured after 5.5 hrs by steady-glo luciferase assay", "type": "cell-based"}, "[16]": {"target": "T4, G-protein coupled bile acid receptor 1 (Homo sapiens)", "assay": "Agonist activity at human TGR5 expressed in human HEK293 cells at 20 uM measured after 5.5 hrs by steady-glo luciferase assay relative to control", "type": "cell-based", "conditions": "filed as agonist"}, "[17]": {"target": "T5, G-protein coupled bile acid receptor 1 (Mus musculus)", "assay": "In vivo agonist activity at TGR5 in mouse assessed as reduction in blood glucose level at 30 mg/kg, po relative to control", "type": "functional, organism-based", "design": "scale not given: the % may be the effect or the level left"}, "[18]": {"target": "T5, G-protein coupled bile acid receptor 1 (Mus musculus)", "assay": "In vivo agonist activity at TGR5 in mouse assessed as increase in insulin level at 30 mg/kg, po relative to control"}, "[19]": {"target": "T5, G-protein coupled bile acid receptor 1 (Mus musculus)", "assay": "In vivo agonist activity at TGR5 in mouse assessed as increase in GLP-1 secretion level at 30 mg/kg, po relative to control"}},
  "data": [
    {"smiles": "O=C(O)c1ccccc1-c1ccc(Cn2ccc(OCc3c(-c4c(Cl)cccc4Cl)noc3-c3cccs3)n2)cc1", "values": [
      {"measurement": "IC50", "setting": "Bile acid receptor [1]", "result": 4200, "unit": "nM"}
    ]},
    {"smiles": "O=c1c2cccnc2nc(-c2cncc(Cl)c2)n1NCc1ccc(Cl)cc1F", "values": [
      {"measurement": "EC50", "setting": "[2]", "result": "< 10000", "unit": "nM"}
    ]},
    {"smiles": "O=C(c1cc(C(F)(F)F)cc(C(F)(F)F)c1)N1CCCn2cccc2C1c1ccccc1", "note": "(stereo unspecified)", "values": [
      {"measurement": "EC50", "setting": "[2]", "result": "< 10000", "unit": "nM"}
    ]},
    {"smiles": "CC[C@H]1[C@@H](O)C2C3CC[C@H](C(C)CCOS(=O)(=O)O)[C@@]3(C)CCC2[C@@]2(C)CC[C@@H](O)C[C@@H]12", "note": "(stereo partly specified)", "values": [
      {"measurement": "Activity", "setting": "[3]", "result": 30, "unit": "nM"}
    ]},
    {"smiles": "Cc1ccccc1[C@H](C/C(=N/O)c1ccc(=O)n(C)n1)c1ccc(Br)cc1", "values": [
      {"measurement": "EC50", "setting": "[4]", "result": 6, "unit": "nM"}
    ]},
    {"smiles": "O=C(c1cc(C(F)(F)F)cc(C(F)(F)F)c1)N1CCOc2nccc(-c3ccccc3)c2C1", "values": [
      {"measurement": "Activity", "setting": "[5]", "result": 100, "unit": "%"}
    ]},
    {"smiles": "COc1ccc(C(C)(C)c2cnc(SCCOc3c(F)cccc3Cl)n2-c2ccc(F)cc2)cc1OC", "values": [
      {"measurement": "Activity", "setting": "[6]", "result": 97, "unit": "%"}
    ]},
    {"smiles": "Cc1c(Cl)cccc1OCCCC(=O)N1CCC(Cc2cccc(C(=O)NCCS(=O)(=O)O)c2)c2ccccc21", "note": "(stereo unspecified)", "values": [
      {"measurement": "EC50", "setting": "[7]", "result": 24, "unit": "nM"}
    ]},
    {"smiles": "COc1ccc(C(C)(C)c2cnc(SCCNCc3cccnc3)n2-c2ccc(F)cc2)cc1OC", "values": [
      {"measurement": "Activity", "setting": "[8]", "result": 320, "unit": "%"},
      {"measurement": "Activity", "setting": "[6]", "result": 129, "unit": "%"}
    ]},
    {"smiles": "CC(C)c1onc(-c2c(Cl)cccc2Cl)c1COc1ccn(-c2cccc(C(=O)O)c2)n1", "values": [
      {"measurement": "EC50", "setting": "Bile acid receptor [1]", "result": 80000, "unit": "nM"}
    ]},
    {"smiles": "CC(C)n1ncc2cc(CNCc3ccc(C(F)(F)F)cc3)c(-c3ccsc3)cc21", "values": [
      {"measurement": "EC50", "setting": "[2]", "result": "< 10000", "unit": "nM"}
    ]},
    {"smiles": "Cc1ccc(-c2csc3nnc(SCc4c(F)cccc4Cl)n23)cc1", "values": [
      {"measurement": "EC50", "setting": "[2]", "result": "< 0.5", "unit": "nM"}
    ]},
    {"smiles": "N#Cc1cc(F)ccc1N(C(=O)COc1cccc2cnccc12)c1ccc(F)cc1Cl", "values": [
      {"measurement": "EC50", "setting": "[2]", "result": 7370, "unit": "nM"}
    ]},
    {"smiles": "CN1CC(C)(C)N(C(=O)COc2cccc3cnccc23)c2ccc(F)cc21", "values": [
      {"measurement": "Activity", "setting": "[9]", "result": 251, "unit": "%"}
    ]},
    {"smiles": "O=C(c1cccnc1Oc1cc(Cl)ccc1Cl)N1CCCc2ccccc21", "values": [
      {"measurement": "solubility", "setting": "[10]", "result": "< 1", "unit": "µg/mL"},
      {"measurement": "CLH", "setting": "[11]", "result": 2134, "unit": "mL/min/g"},
      {"measurement": "EC50", "setting": "[12]", "result": 2560, "unit": "nM"},
      {"measurement": "CLH", "setting": "[13]", "result": 1418, "unit": "mL/min/g"}
    ]},
    {"smiles": "Fc1cccc(F)c1-c1ccncc1CN1C(c2ccco2)=NOC1c1ccccc1", "note": "(stereo unspecified)", "values": [
      {"measurement": "EC50", "setting": "[2]", "result": "< 100", "unit": "nM"}
    ]},
    {"smiles": "Cc1noc2cc(Cl)c(Oc3ccncc3C(=O)N3CCN(C4CC4)c4ccccc43)cc12", "values": [
      {"measurement": "EC50", "setting": "[2]", "result": 0.43, "unit": "nM"}
    ]},
    {"smiles": "O=C(O)c1ccc2cc(N3C4CCC3CC(OCc3c(-c5ccccc5OC(F)(F)F)noc3C3CC3)C4)ccc2c1", "note": "(stereo unspecified)", "values": [
      {"measurement": "EC50", "setting": "Bile acid receptor [14]", "result": 1, "unit": "nM"}
    ]},
    {"smiles": "Cc1c(Cl)cccc1OCCCC(=O)N1CCCc2c(-c3cnn(Cc4c(F)cc(C(=O)NCCS(=O)(=O)O)cc4Cl)c3)cccc21", "values": [
      {"measurement": "EC50", "setting": "[7]", "result": 23, "unit": "nM"}
    ]},
    {"smiles": "O=C(c1cccnc1Oc1cccc(C(F)(F)F)c1)N1CCCc2ccccc21", "values": [
      {"measurement": "EC50", "setting": "[12]", "result": 2020, "unit": "nM"}
    ]},
    {"smiles": "Cc1ccccc1[C@H](C/C(=N/O)C1CCC(=O)N(C)C1)c1ccc(S(C)(=O)=O)cc1", "note": "(stereo partly specified)", "values": [
      {"measurement": "EC50", "setting": "[4]", "result": 29, "unit": "nM"}
    ]},
    {"smiles": "Fc1ccccc1-c1ccncc1CN1C(c2ccco2)=NOC1c1cc(C(F)(F)F)cc(C(F)(F)F)c1", "note": "(stereo unspecified)", "values": [
      {"measurement": "EC50", "setting": "[15]", "result": 15, "unit": "nM"},
      {"measurement": "Activity", "setting": "[16]", "result": 102, "unit": "%"}
    ]},
    {"smiles": "O=c1c2ccccc2nc(-c2ccc(F)cc2)n1NCc1ccc(Br)cc1", "values": [
      {"measurement": "Activity", "setting": "[17]", "result": 52, "unit": "%"},
      {"measurement": "EC50", "setting": "[2]", "result": "< 10000", "unit": "nM"},
      {"measurement": "Activity", "setting": "[18]", "result": 130, "unit": "%"},
      {"measurement": "Activity", "setting": "[19]", "result": 70, "unit": "%"}
    ]}
  ]
}
